US20050288215A1, “Inhibition of nuclear export as a treatment for cardiac hypertrophy and heart failure” (priority 2004, published 2005)

Assays:
Type in all cases: cell-based
[1] = tested on: neonatal rat ventricular myocytes (NRVM); test: ANF competition ELISA, secreted ANF in culture supernatants; set-up: ANF induction (secreted ANF in culture supernatants): dose or concentration left out as unconfirmed; conditions: 48 hrs
Protocol: (§1) Neonatal rat ventricular myocyte (NRVM) preparation and culture. Hearts were dissected from 1 to 3 day-old Sprague-Dawley rats, minced, and digested with collagenase (Worthington; […]) and pancreatin (Sigma; 1× activity equivalent) in 1× Ads buffer (NaCl [116 mM], HEPES [20 mM; pH 7.4], NaH2PO4 [4.8 mM], KCl [5 mM], MgSO4 [[…]], and glucose [5.5 mM]). Cells were centrifuged through a step gradient of Percoll (Pharmacia) to separate myocytes from fibroblasts, and the myocyte pool was further enriched by pre-plating for 2 hours to remove adherent fibroblasts from the cell population. Cells were cultured overnight on dishes coated with gelatin (Sigma; 0.2%) in DMEM containing fetal bovine serum (FBS) (10%), L-glutamine (2 mM), and penicillin-streptomycin. […]
(§2) ANF competition ELISA and total protein measurements. […] Wells were washed 5× with TBS-T and exposed to TMB substrate (Kirkegaard & Perry; […]), which provides a colorimetric readout, for 30 minutes at room temperature. Reactions were terminated with H2SO4 (2N, […]) and absorbance at 450 nm detected using a Fusion Plate Reader (Perkin Elmer/Packard). […] Color development was allowed to proceed for 30 minutes prior to being measured at 595 nm using a micro-titer plate spectrophotometer (Molecular Devices).

[2] = tested on: neonatal rat ventricular myocytes (NRVM); test: Cell volume measurements by Coulter Counter; conditions: 48 hours
Protocol: (§3) Neonatal rat ventricular myocyte (NRVM) preparation and culture. Hearts were dissected from 1 to 3 day-old Sprague-Dawley rats, minced, and digested with collagenase (Worthington; […]) and pancreatin (Sigma; 1× activity equivalent) in 1× Ads buffer (NaCl [116 mM], HEPES [20 mM; pH 7.4], NaH2PO4 [4.8 mM], KCl [5 mM], MgSO4 [[…]], and glucose [5.5 mM]). Cells were centrifuged through a step gradient of Percoll (Pharmacia) to separate myocytes from fibroblasts, and the myocyte pool was further enriched by pre-plating for 2 hours to remove adherent fibroblasts from the cell population. Cells were cultured overnight on dishes coated with gelatin (Sigma; 0.2%) in DMEM containing fetal bovine serum (FBS) (10%), L-glutamine (2 mM), and penicillin-streptomycin. After overnight culture, cells were washed with serum-free medium and maintained in DMEM supplemented with Neutridoma-SP (Roche Applied Science), which contains albumin, insulin, transferrin, and other defined organic and inorganic compounds, at either 0.1% or 0.3% v/v, as indicated.
Cell volume measurements. Three-dimensional measurements of isolates NRVM were conducted using a Coulter Model Z2 instrument (Beckman), as previously described (Said et al., 2004). […] Cell volumes are expressed as […].

[3] = tested on: neonatal rat ventricular myocytes (NRVM); test: Total cellular protein by Bradford assay
Protocol: as §1, §2

[4] = tested on: neonatal rat ventricular myocytes (NRVM); test: RNA dot blot analysis of fetal cardiac gene transcripts; conditions: 48 hrs, LMB 18.5 nM (FIG. 2)
Protocol: as §3
RNA analysis. NRVM were plated on gelatin-coated 10 cm dishes (2×10^6 cells/dish). Following the indicated treatments, RNA was isolated from cardiomyocytes using Trizol Reagent (Gibco/BRL). Total RNA ([…]) was vacuum blotted onto nitrocellulose membranes (Bio-Rad) using a 96-well format dot blotter (Bio-Rad). Membranes were blocked in 4×SSC containing SDS (1%), 5× Denhardt's Reagent, sodium pyrophosphate (0.05%), and […] sonicated salmon sperm DNA (4 hrs at […]) and incubated with ^32P-end-labeled oligonucleotide probes (1×10^6 cpm/ml; 14 hrs at […]). Sequences of oligonucleotides were as follows: ANF, 5′-[…]-3; a-SK-actin 5′-[…]-3′; a-MHC 5′-[…]-3′; b-MHC 5′-[…]-3′; GAPDH 5′-[…]-3′). Blots were washed twice with 0.5×SSC containing SDS (0.1%; 10 minutes at […]) and analyzed by autoradiography.

[5] = tested on: neonatal rat ventricular myocytes (NRVM); test: α- and β-myosin heavy chain cytoblot assay
Protocol: as §3
α- and β-myosin heavy chain cytoblot assay. […] Cells were washed three times with PBS containing BSA (1%), luminol (Pierce) was added, and luminescence detected using a Fusion Plate Reader (Perkin Elmer/Packard).

[6] = tested on: neonatal rat ventricular myocytes (NRVM); test: SERCA2 immunoblot analysis; conditions: 48 hours, LMB 18.5 nM (FIG. 8)
Protocol: as §3
SERCA and MCIP immunoblot analysis. […] Protein concentrations were determined by Bradford Assay (Bio-Rad) and […] total protein resolved by SDS-PAGE with gradient gels (Invitrogen; 4%-20% polyacrylamide). […]

[7] = tested on: neonatal rat ventricular myocytes (NRVM); test: Sarcomere organization, α-actinin indirect immunofluorescence; set-up: key: +, organized sarcomeres; −, disorganized sarcomeres; conditions: 48 hrs, LMB 18.5 nM
Protocol: as §3
Indirect immunofluorescence. NRVM (2.5×105) were plated on gelatin-coated 6-well dishes. […] Proteins were visualized with an inverted fluorescence microscope (Olympus, BH-2) at 40× magnification and images captured using a digital camera (Roper Scientific, Photometrics).

[8] = tested on: neonatal rat ventricular myocytes (NRVM); test: ANF protein by indirect immunofluorescence (perinuclear ANF); set-up: key to Perinuclear ANF: +, presence; −, absence; conditions: for Perinuclear ANF: LMB 18.5 nM
Protocol: as §3
Indirect immunofluorescence. NRVM (2.5×105) were plated on gelatin-coated 6-well dishes. Following the indicated treatments, cells were fixed with formalin (10%) in PBS, permeablized and blocked with PBS containing NP-40 (0.1%) and bovine serum albumin (BSA) (3%), and incubated in the same solution, but with primary antibodies for sarcomeric α-actinin (Sigma, mouse monoclonal; 1:200 dilution) or atrial natriuretic factor (ANF) (Peninsula Labs, rabbit polyclonal; 1:200 dilution). Cells were washed five times with PBS and incubated with fluorescein- or cy3-conjugated secondary antibodies (Jackson Labs, goat polyclonal; 1:200 dilution), followed by a brief incubation with Hoechst dye (Molecular Probes). Cells were washed five times in PBS, one time with water and sequentially covered with mounting solution (Molecular Probes, SlowFade) and glass coverslips. Proteins were visualized with an inverted fluorescence microscope (Olympus, BH-2) at 40× magnification and images captured using a digital camera (Roper Scientific, Photometrics).

[9] = tested on: neonatal rat ventricular myocytes (NRVM); test: Toxicity: adenylate kinase (AK) release into culture medium; conditions: 48 hours, LMB 18.5 nM (FIG. 6)
Protocol: as §1
Toxicity measurements. Adenylate kinase (AK) was measured in culture supernatants employing the bioluminescent ToxiLight kit (BioWhittaker) according to the manufacturer's instructions. Assays were run in a 96-well format and values measured using a Fusion Plate Reader (Perkin Elmer/Packard). Cell viability was also assessed using the LIVE/DEAD Viability/Cytotoxicity Kit (Molecular Probes). […]

[10] = tested on: neonatal rat ventricular myocytes (NRVM); test: Viability: calcein AM / ethidium staining (LIVE/DEAD kit); set-up: key to Calcein Fluorescence / Ethidium Fluorescence: +, fluorescence; −, no fluorescence; conditions: for Calcein Fluorescence / Ethidium Fluorescence: PE (20 μM), 48 hrs
Protocol: as §3
Toxicity measurements. Adenylate kinase (AK) was measured in culture supernatants employing the bioluminescent ToxiLight kit (BioWhittaker) according to the manufacturer's instructions. Assays were run in a 96-well format and values measured using a Fusion Plate Reader (Perkin Elmer/Packard). Cell viability was also assessed using the LIVE/DEAD Viability/Cytotoxicity Kit (Molecular Probes). This kit employs calcein AM fluorescent dye, which is retained by viable cells, and an ethidium homodimer, which only enters cells with damaged membranes.

## Cc1ccc2[nH]c3c(c2c1)CCCC3NC(=O)CCl (stereo not drawn) [compound 5219668, 2-chloro-N-(6-methyl-2,3,4,9-tetrahydro-1H-carbazol-1-yl)acetamide]
[1]; PE (20 μM), 5219668 1.25 μM (FIG. 9)
  ANF induction in response to PE (secreted ANF): efficiently blocked ANF induction
[2]; PE (20 μM), 5219668 1.25 μM (FIG. 11)
  Agonist-induced increase in cell size (cell volume): effectively blocked the increases
[3]; PE (20 μM), 48 hours, 5219668 1.25 μM (FIG. 10)
  Agonist-induced increase in protein synthesis (total cellular protein): effectively blocked the increases

## CCC(=C/[C@H](C)C/C=C/C(C)=C/[C@@H](C)C(=O)[C@@H](C)[C@H](O)[C@@H](C)C/C(C)=C/C(=O)O)/C=C/[C@@H]1OC(=O)C=C[C@@H]1C [LMB, leptomycin B]
[4]
  PE-induced downregulation of α-MyHC transcripts: inhibited the subtle downregulation
  PE-induced β-MyHC mRNA expression: repressed
  PE-mediated induction of ANF mRNA transcripts: effectively blocked
  PE-mediated induction of α-skeletal actin (α-SK-actin) mRNA transcripts: effectively blocked
[5]; 48 hrs, LMB 18.5 nM (FIG. 3)
  PE-induced β-MyHC protein expression: repressed
[5]; T3 (3 nM), 48 hours, LMB 18.5 nM (FIG. 7)
  T3-mediated coordinate regulation of α- and β-MyHC protein expression: no significant effect
[1]; low nanomolar concentrations of LMB (FIG. 1)
  ANF induction (secreted ANF in culture supernatants): efficiently blocked ANF induction
[6]
  PE-induced downregulation of SERCA2 expression: appeared to repress the modest downregulation
[6]; T3 (3 nM)
  T3-induced SERCA2 protein expression: failed to alter
[7]; stimulus FBS (5%)
  Organized Sarcomeres: −
[7]; stimulus PE (20 μM)
  Organized Sarcomeres: −
[2]; LMB 18.5 nM (FIG. 5)
  Cell size (cell volume, Coulter Counter): diminished cell size
[3]; PE or FBS, 72 hrs (text; FIG. 4 legend 48 hours), LMB 18.5 nM
  Agonist-induced increase in total cellular protein content: effectively blocked
[8]; NRVM stimulated with PE or FBS, LMB present
  ANF immunostaining: markedly reduced
[8]; NRVM, immunofluorescence, LMB 18.5 nM (Table 3)
  ANF expression induced by prostaglandin F2a and endothelin-1: efficiently blocked ANF expression
[8]; NRVM, stimulus ET-1 (50 nM)
  Perinuclear ANF: −
[8]; NRVM, stimulus FBS (5%)
  Perinuclear ANF: −
[8]; NRVM, stimulus PE (20 μM)
  Perinuclear ANF: −
[8]; NRVM, stimulus PGF2a (10 μM)
  Perinuclear ANF: −
[9]
  Adenylate kinase (AK) in culture medium: did not increase AK
[10]; LMB-treated cells (Table 5)
  Ethidium bromide staining (compromised membranes): not significantly stained by ethidium bromide
[10]; LMB-treated cells vs control cells (Table 5)
  Calcein dye retention (viability): retained calcein dye as effectively as control cells
[10]; LMB 2.3 nM
  Calcein Fluorescence: +
  Ethidium Fluorescence: −
[10]; LMB 4.6 nM
  Calcein Fluorescence: +
  Ethidium Fluorescence: −
[10]; LMB 9.25 nM
  Calcein Fluorescence: +
  Ethidium Fluorescence: −
[10]; LMB 18.5 nM
  Calcein Fluorescence: +
  Ethidium Fluorescence: −
